# Assay results reported in ChEMBL document CHEMBL1121972, “Spasmolytic agents. 2. 1,2,3,4-Tetrahydro-2-naphthylamine derivatives” (1982).
# Legend:
# Canis familiaris [1] = assay: Antispasmodic activity was measured on colonic contraction in anesthetized dog after iv administration of a dose of 0.1 mg/kg; format: functional, Canis lupus familiaris
# Canis familiaris [2] = assay: Antispasmodic activity was measured on stomach contraction in anesthetized dog after iv administration of a dose of 0.1 mg/kg; format: functional, Canis lupus familiaris
Compound,Activity (Canis familiaris [1]),Activity (Canis familiaris [2])
CCN(CCCCO)C1CCc2cc(OC)ccc2C1 (stereo not given),2.6,<5
CCN(CCCCOCc1ccc(OC)c(OC)c1)C1CCc2cc(OC)ccc2C1 (stereo not given),-4.3,<5
CCN(CCCCOC(=O)c1cc(OC)c(OC)c(OC)c1)C1CCc2cc(OC)ccc2C1.CS(=O)(=O)O (stereo not given),1.1,<5
CCN(CCCCCCO)C1CCc2cc(OC)ccc2C1 (stereo not given),5.2,–
CCCN(CCCCOC(=O)c1ccc(OC)c(OC)c1)C1CCc2cc(OC)ccc2C1.Cl (stereo not given),–,<5
CCOc1ccc2c(c1)CCC(N(CC)CCCCOC(=O)c1ccc(OC)c(OC)c1)C2.Cl (stereo not given),7.4,<5
COc1ccc2c(c1)CCC(N(C)CCCCOC(=O)c1ccc(OC)c(OC)c1)C2.Cl (stereo not given),-4.9,<5
CCN(CCCCOC(=O)c1ccc(OC)c(OC)c1)C1CCc2cc(OC)c(OC)cc2C1.Cl (stereo not given),–,11.8
CCN(CCCCOC(=O)c1ccc(OC)c(OC)c1)C1CCc2ccccc2C1.Cl (stereo not given),–,<5
CCN(CCCCOC(=O)c1ccc(OC)c(OC)c1)C1CCc2cc(OC)ccc2C1.Cl (stereo not given),–,6.6
CCN(CC(C)(C)COC(=O)c1ccc(OC)c(OC)c1)C1CCc2cc(OC)ccc2C1.Cl (stereo not given),15.8,<5
CCCOc1ccc(C(=O)OCCCCN(CC)C2CCc3cc(OC)ccc3C2)cc1.Cl (stereo not given),10.2,<5
CCN(CCOC(=O)c1ccc(OC)c(OC)c1)C1CCc2cc(OC)ccc2C1.Cl (stereo not given),11.4,<5
CCN(CCCCOC(=O)c1c(OC)cccc1OC)C1CCc2cc(OC)ccc2C1.Cl (stereo not given),-8.7,<5
CCN(CCCCOC(=O)c1ccc(OC)c(OC)c1)C1CCc2c(cccc2OC)C1.Cl (stereo not given),13.3,<5
CCN(CCCCCCCCCCOC(=O)c1ccc(OC)c(OC)c1)C1CCc2cc(OC)ccc2C1.Cl (stereo not given),13.7,<5
CCN(CCCCOC(=O)c1ccc(OC)cc1)C1CCc2cc(OC)ccc2C1.Cl (stereo not given),8.1,<5

Compound,Activity (Canis familiaris [1]),Activity (Canis familiaris [2])
CCN(CCCCOC(=O)c1ccc(OC)c(OC)c1)C1CCc2c(OC)ccc(OC)c2C1.Cl (stereo not given),9.2,<5
CCN(CCOCCOC(=O)c1ccc(OC)c(OC)c1)C1CCc2cc(OC)ccc2C1.Cl (stereo not given),0,<5
COc1ccc2c(c1)CCC(N(CCCCOC(=O)c1ccc(OC)c(OC)c1)C(C)C)C2.Cl (stereo not given),19.6,<5
CCN(CCCCOC(=O)c1ccc2c(c1)OCO2)C1CCc2cc(OC)ccc2C1.Cl (stereo not given),1.3,<5
CCN(CCCCCCOC(=O)c1ccc(OC)c(OC)c1)C1CCc2ccccc2C1.Cl (stereo not given),–,31.3
CCN(CCCCCCOC(=O)c1ccc(OC)c(OC)c1)C1CCc2cc(OC)ccc2C1.Cl (stereo not given),–,<5
CCOc1ccc(C(=O)OCCCCN(CC)C2CCc3cc(OC)ccc3C2)cc1.Cl (stereo not given),-2.5,<5
CCCOc1ccc2c(c1)CCC(N(CC)CCCCOC(=O)c1ccc(OC)c(OC)c1)C2.Cl (stereo not given),1.4,<5
CCN(CCCCOC(=O)c1ccccc1)C1CCc2cc(OC)ccc2C1.Cl (stereo not given),-2.6,<5
CCOc1cc(C(=O)OCCCCN(CC)C2CCc3cc(OC)ccc3C2)cc(OCC)c1OCC.Cl (stereo not given),-6.8,<5
CCN(CCCCOC(=O)c1ccc(OC)c(OC)c1)C1CCc2cccc(OC)c2C1.Cl (stereo not given),–,21.3
CCN(CCCCCCOC(=O)c1ccc(OC)c(OC)c1)C1CCc2cc(OC)c(OC)cc2C1.Cl (stereo not given),–,64.5
CCN(CCCCOC(=O)c1ccc(OC)c(OC)c1)C1CCc2cc3c(cc2C1)OCO3.Cl (stereo not given),13.4,<5
CCN(CCCCOC(=O)c1ccc(OC)c(OC)c1)C1CCc2ccc(OC)cc2C1.Cl (stereo not given),–,18.1
CCN(CCCOC(=O)c1ccc(OC)c(OC)c1)C1CCc2cc(OC)ccc2C1.Cl (stereo not given),-1,<5
CCN(CCCCOC(=O)c1ccc(OC)c(OC)c1)C(C)Cc1ccc(OC)cc1 (stereo not given) [MEBEVERINE],–,2.6
